Experimental data from US20110190270A1, “METHODS OF TREATING THROMBOEMBOLIC DISORDERS” (MONASH UNIVERSITY, priority 2008, published 2011).

Experiments:
[1] = tested on: thrombi in mesenteric post-capillary venules; experiment: intravital microscopy of thrombus growth and stability after vessel injury; format: in vivo, mice; settings: for effect on thrombus stability and embolization in vivo (in words): local microinjection after thrombus formation; for effect on thrombus stability and embolization in vivo (in words) / mean reduction in thrombus size: needle puncture, no lepirudin; for stability of the primary hemostatic plug (in words): mice pretreated with lepirudin 50 mg/kg i.v., local infusion into formed thrombus; for mean reduction in thrombus size: local administration into the microcirculation after thrombus formation
Experimental: The development and consolidation of thrombi in response to vessel injury was monitored using intravital microscopy. C57BL6 or PAR4 deficient (15 g-18 g) mice were anaesthetised using sodium pentobarbitone (60 mg/kg), and the mesentery exteriorized through a midline abdominal incision. Body temperature was maintained during the procedure using an infrared heat lamp, and exposed mesenteric vessels (50-160 μm diameter) were hydrated using warm saline. Vessel injury was achieved either through vessel puncture using a microinjection needle (20-30 μm tip diameter) connected to a micromanipulator (Eppendorf), or through application of 6% FeCl3-soaked filter paper (8 sec). Accrual of platelets to the area of injury was recorded in real-time as described for in vitro flow assays (above). […] (25 mM stock solution, 2.5 μl total injection volume), or an equivalent volume of vehicle (DMSO), were locally infused into developing thrombi via the microinjection needle (release rate 2-3 μl/min, 3 cycles). To prevent fibrin generation, in some experiments, lepirudin (50 mg/kg) was administered via intravenous injection prior to induction of injury and subsequent injection of inhibitors. Complete abolition of fibrin formation at this concentration of lepirudin was confirmed by histology using Carstair's stain. The surface area of thrombi in vivo was measured using Image J, with analysis of every 5th frame (at 1 frame/sec) over 4-5 mins. Change in surface area was expressed as fold-increase or decrease over the original surface area (=1).

[2] = tested on: platelet-mediated fibrin clot retraction in citrated PRP; experiment: platelet-mediated fibrin clot retraction; format: cell-based, human; settings: thrombin 1 U/ml, 2-APB 200 μM, EGTA/Mg2+ 2 mM/1 mM, H1152 40 μM, HA1077 80 μM
Experimental: Washed platelets were prepared from acid-citrate dextrose (ACD)-anticoagulated whole blood, with the inclusion of Lepirudin (800 U/ml) in the Platelet Washing Buffer and Apyrase (0.02 U/ml) in the Tyrode's Buffer.
Platelet-mediated fibrin-dependent clot retraction was measured using citrated PRP^9,10. Results are expressed as, the percentage of serum remaining in the tube following clot removal, after subtracting the volumes obtained for c7E3 (negative control) samples.

[3] = tested on: platelet thrombi formed from human whole blood; experiment: in vitro thrombus consolidation under flow on Type I collagen; format: cell-based; settings: for effect of fibrin/thrombin inhibition on contraction of platelet thrombi (in words): whole blood, 1800 s-1, GPRP 280 μM in native blood, hirudin-anticoagulated, lepirudin 1600 U/ml + enoxaparine 400 U/ml
Experimental: Flow-based thrombus formation assays on a bovine fibrillar Type I collagen matrix were performed at 37° C. in the absence of fibrin. Briefly, […] (DMSO), Blebbistatin (+) (200 μM), Blebbistatin (−) (200 μM), EGTA/Mg^2+ (2 mM/1 mM), HA1077 (80 μM), H1152 (40 μM) or 2-APB (200 μM) (10 mins, 37° C.) prior to perfusion through fibrillar type I collagen-coated microcapillary tubes (2.0 mg/ml) at 1800 s^−1 for 5 mins. Thrombus formation was observed using an inverted Leica DMIRB microscope (Leica Microsystems, Wetzlar, Germany) with a 63× water objective (1.2 numeric aperture (NA)), and recorded in real-time using a Dage-MTI charge-coupled device (CCD) camera 300 ETRCX (Dage-MTI, Michigan City, Ind.).
Two-dimensional quantification of thrombus consolidation—Quantification of thrombus contraction was performed by ‘spiking’ whole blood with 3% DiIC12-labelled platelets prior to perfusion. Spiked whole blood was then perfused over collagen matrices as described above, and DIC/fluorescence images were recorded in real-time as described above, for off-line analysis. Studies examining the effect of 2-APB on consolidation were performed by perfusing untreated whole blood across microslides for 30 seconds to establish a nucleating thrombus, followed by perfusion of inhibitor treated blood. […] The distance between 2 fluorescently-labelled platelets in a given thrombus was measured in […] every 30 sec over 5 min. Results are expressed as percentage decrease in the distance between 2 platelets incorporated into a thrombus prior to 1 minute of flow, with the distance between platelets at 1 minute taken as 100%.
3D volumetric thrombus analysis—For analysis of thrombus volume, whole blood was labelled with DiIC12 (1 μM) prior to perfusion. Thrombi were formed as described above, and images captured in real-time using an inverted Leica DMIRB confocal microscope, with […] sections acquired every 30 seconds over 4-5 min. Analysis of thrombus volume was performed using Metamorph 6 software.

[4] = tested on: non-muscle myosin II; settings: read-out: IC50, inhibitor of non-muscle myosin II; cited from earlier work
[5] = tested on: occlusive blood clot in the carotid artery; experiment: carotid artery occlusion model, clot lysis and vascular reperfusion; format: in vivo, mice; settings: regimens A-H of FIGS. 8 and 9, blood flow monitored 60 minutes
Experimental: Mice were anaesthetised and minor surgery performed to expose to the carotid artery and jugular vein. A Doppler flow probe was placed around the carotid artery to monitor blood flow through this blood vessel, and a catheter placed in the jugular vein to administer drugs. A blood clot was formed in the carotid artery of the mouse through the delivery of a small electric current (4 mA for 1.25 min^g), resulting in complete blockage of blood flow through the vessel (blood flow=0 mls/min), as measured by the flow probe. After vessel blockade was established, various combinations of t-PA, urokinase, heparin, hirudin, HA1077 and Y27632 were administered, using concentrations and regimens indicated (A-H in FIGS. 8 and 9) and examined for their efficacy to dissolve blood clots and restore blood flow. Blood flow was monitored in mice receiving each drug combination for a further 60 minutes, and blood flow measurements recorded using computer software.

[6] = H1152 40 μM, Blebbistatin (−) 200 μM, lepirudin-anticoagulated human whole blood, 1800 s-1
[7] = GPRP added to native whole blood, 1800 s-1

Molecule: Cc1ccc2c(c1)C(=O)C1(O)CCN(c3ccccc3)C1=N2 (single isomer, unassigned) [inactive blebbistatin enantiomer]
- effect on thrombus stability and embolization in vivo (in words) [1]: no effect
- stability of the primary hemostatic plug (in words) [1]: no adverse effect

Molecule: NCCOB(c1ccccc1)c1ccccc1 [2-APB, 2-aminoethoxydiphenyl borate]
- fibrin clot retraction (in words) [2]: abolished clot retraction
- reduction of thrombus contraction ([3]; 2-APB 200 μM, perfused after 30 sec of untreated blood, lepirudin-anticoagulated human whole blood, 1800 s-1): 32%

Molecule: Cc1ccc2c(c1)C(=O)C1(O)CCN(c3ccccc3)C1=N2 (stereo not drawn) [Blebbistatin]
- IC50 [4]: ~4 µM
- thrombus behaviour on cessation of administration ([1]; after stopping local administration): thrombi rapidly reformed
- mean reduction in thrombus size [1]: 38%
- stability of the primary hemostatic plug (in words) ([1]; listed as active enantiomer of blebbistatin): near complete embolization of the formed thrombus
- stability of thrombi formed in vitro (in words) [3, 6]: highly unstable platelet thrombi
- effect on thrombus contraction / consolidation (in words) ([3]; HA1077 80 μM, Blebbistatin (−) 200 μM, lepirudin-anticoagulated human whole blood, 1800 s-1): tight packing of platelets did not occur

Molecule: O=C(O)CN(CCOCCOCCN(CC(=O)O)CC(=O)O)CC(=O)O [EGTA]
- fibrin clot retraction (in words) [2]: no significant inhibitory effect
- reduction of the rate of thrombus contraction ([3]; EGTA/Mg2+ 2 mM/1 mM, lepirudin-anticoagulated human whole blood, 1800 s-1, at 5 mins perfusion): up to 52%

Molecule: Cc1cncc2cccc(S(=O)(=O)N3CCCNC[C@@H]3C)c12.Cl.Cl [H1152, (S)-(+)-2-methyl-1-[(4-methyl-5-isoquinolinyl)sulfonyl]homopiperazin, 2HCl]
- mean reduction in thrombus size [1]: 34%
- effect on thrombus stability and embolization in vivo (in words) [1]: more effective than the IP3 receptor antagonist APB
- fibrin clot retraction (in words) [2]: neither inhibitor had any significant effect
- stability of thrombi formed in vitro (in words) [3, 6]: less stable thrombi
- decrease in thrombus contraction ([3]; H1152 40 μM, lepirudin-anticoagulated human whole blood, 1800 s-1, after 5 mins perfusion): 88%

Molecule: Cl.O=S(=O)(c1cccc2cnccc12)N1CCCNCC1 [HA1077, 1-(5-isoquinolinesulphonyl)-homopiperazine HCl]
- fibrin clot retraction (in words) [2]: neither inhibitor had any significant effect
- clot lysis and re-establishment of blood flow (in words) [5]: unable to lyse blood clots and re-establish blood flow

Molecule: Gly-Pro-Arg-Pro peptide [GPRP]
- formation of fibrin polymers [3, 7]: inhibited the formation of individual fibrin polymers
- platelet thrombus growth [3, 7]: no inhibitory effect
- effect of fibrin/thrombin inhibition on contraction of platelet thrombi (in words) [3]: unaltered

Molecule: lepirudin
- thrombus stability in the absence of thrombin ([1]; wild type mice pretreated with lepirudin 50 mg/kg prior to vessel injury): thrombi were more unstable
- effect of fibrin/thrombin inhibition on contraction of platelet thrombi (in words) [3]: underwent a prominent contractile phase
